Our source for the pest or weed control and melting point values is US9518018B2, “3-alkoxy, thioalkyl and amino-4-amino-6-(substituted)picolinates and their use as herbicides” (Dow AgroSciences LLC, priority 2011, dated 2016).

Each structure is given as a SMILES string.

One series relates to ABUTH: velvetleaf (Abutilon theophrasti). As to the kind of experiment: Post-Emergent Test I herbicidal activity. The class given is in vivo. To be noted: Abutilon theophrasti, post-emergence, 336 h, Table 3, 140 g ai/ha, read-out: Visual Growth Reduction (%)-14 Days after Application ABUTH. The method, boiled down: (§1)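 Plants grown in greenhouse to first/second true leaf. Compound formulated in acetone:DMSO 97:3 then diluted into crop-oil/surfactant aqueous mix; serial twofold rates. Sprayed at 187 L/ha, 43 cm above canopy; solvent-blank controls. Scored visually at 14 d; probit fit for GR values.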
For the molecule `COc1c(C(=O)O)nc(-c2ccc(C(F)(F)F)nc2)c(F)c1N` [Compound 63], the pest or weed control at 140 g/ha stood at 90%.
With `COc1c(C(=O)O)nc(-c2ccc(Cl)c(F)c2)c(F)c1N` [Compound 49], the pest or weed control at 140 g/ha was determined as 100%.
As to `CCOC(=O)c1nc(-c2ccc(Cl)c(OC)c2F)cc(N)c1SC` [Compound 88, Ethyl 4-amino-6-(4-chloro-2-fluoro-3-methoxyphenyl)-3-(methylthio)picolinate], the pest or weed control at 140 g/ha is 100%.
For the molecule `COC(=O)c1nc(-c2ccc(C(F)(F)F)nc2)c(F)c(N)c1OC` [Compound 40], the pest or weed control at 140 g/ha stood at 80%.

The same series, now with this note: Abutilon theophrasti, post-emergence, 336 h, Table 3, 280 g ai/ha, read-out: Visual Growth Reduction (%)-14 Days after Application ABUTH.
Take `CCc1nc(C(=O)OC)c(OC)c(N)c1F` [Compound 13, methyl 4-amino-6-ethyl-5-fluoro-3-methoxypicolinate]: the pest or weed control at 280 g/ha turned out to be 0%.
Same read-out and setting: in the case of `CCOC(=O)c1nc(-c2ccc(Cl)cc2F)cc(N)c1OCC(F)(F)F` [Compound 67, ethyl 4-amino-6-(4-chloro-2-fluorophenyl)-3-(2,2,2-trifluoro-ethoxy)picolinate] it was 25%; in that of `CCc1nc(C(=O)O)c(OC)c(N)c1F` [Compound 58], 60%.

Another series has as its system CHEAL: lambsquarters (Chenopodium album). Nature of the series: Post-Emergent Test I herbicidal activity. As to conditions: Chenopodium album, post-emergence, 336 h, Table 3, 140 g ai/ha, read-out: Visual Growth Reduction (%)-14 Days after Application CHEAL. It is filed as in vivo. The method, boiled down: as §1
Take `COc1c(C(=O)O)nc(-c2ccc(C(F)(F)F)nc2)c(F)c1N` [Compound 63]: the pest or weed control at 140 g/ha amounted to 100%.
The same measure, in the same setting: under `COc1c(C(=O)O)nc(-c2ccc(Cl)c(F)c2)c(F)c1N` [Compound 49] stands 100%; under `CCOC(=O)c1nc(-c2ccc(Cl)c(OC)c2F)cc(N)c1SC` [Compound 88, Ethyl 4-amino-6-(4-chloro-2-fluoro-3-methoxyphenyl)-3-(methylthio)picolinate], 100%.
Regarding `COC(=O)c1nc(-c2ccc(C(F)(F)F)nc2)c(F)c(N)c1OC` [Compound 40], the pest or weed control at 140 g/ha is 100%.

Staying with this series, now noted: Chenopodium album, post-emergence, 336 h, Table 3, 280 g ai/ha, read-out: Visual Growth Reduction (%)-14 Days after Application CHEAL.
Turning to `CCc1nc(C(=O)OC)c(OC)c(N)c1F` [Compound 13, methyl 4-amino-6-ethyl-5-fluoro-3-methoxypicolinate], the pest or weed control at 280 g/ha worked out at 90%.
Same read-out and setting: under `CCOC(=O)c1nc(-c2ccc(Cl)cc2F)cc(N)c1OCC(F)(F)F` [Compound 67, ethyl 4-amino-6-(4-chloro-2-fluorophenyl)-3-(2,2,2-trifluoro-ethoxy)picolinate] stands 50%; under `CCc1nc(C(=O)O)c(OC)c(N)c1F` [Compound 58], 80%.

For the next series, the system named is CYPES: yellow nutsedge (Cyperus esculentus). As to the kind of experiment: Post-Emergent Test I herbicidal activity. The class given is in vivo. To be noted: post-emergence, 336 h, Table 3, 140 g ai/ha, read-out: Visual Growth Reduction (%)-14 Days after Application CYPES. An outline of the steps:
as §1
For `COc1c(C(=O)O)nc(-c2ccc(C(F)(F)F)nc2)c(F)c1N` [Compound 63], the pest or weed control at 140 g/ha is 100%.
`COc1c(C(=O)O)nc(-c2ccc(Cl)c(F)c2)c(F)c1N` [Compound 49]: the pest or weed control at 140 g/ha is 100%.
Still for that read-out and setting: in the case of `CCOC(=O)c1nc(-c2ccc(Cl)c(OC)c2F)cc(N)c1SC` [Compound 88, Ethyl 4-amino-6-(4-chloro-2-fluoro-3-methoxyphenyl)-3-(methylthio)picolinate] it was 60%.
Consider `COC(=O)c1nc(-c2ccc(C(F)(F)F)nc2)c(F)c(N)c1OC` [Compound 40], for which the pest or weed control at 140 g/ha is 100%.

Staying with this series, now noted: post-emergence, 336 h, Table 3, 280 g ai/ha, read-out: Visual Growth Reduction (%)-14 Days after Application CYPES.
For the molecule `CCc1nc(C(=O)OC)c(OC)c(N)c1F` [Compound 13, methyl 4-amino-6-ethyl-5-fluoro-3-methoxypicolinate], the pest or weed control at 280 g/ha amounted to 0%.
For the molecule `CCOC(=O)c1nc(-c2ccc(Cl)cc2F)cc(N)c1OCC(F)(F)F` [Compound 67, ethyl 4-amino-6-(4-chloro-2-fluorophenyl)-3-(2,2,2-trifluoro-ethoxy)picolinate], the pest or weed control at 280 g/ha was found to be 0%.
The same measure, in the same setting: in the case of `CCc1nc(C(=O)O)c(OC)c(N)c1F` [Compound 58] it was 0%.

The test system of a further series is ECHCG: barnyardgrass (Echinochloa crus-galli). As to the kind of experiment: Post-Emergent Test I herbicidal activity. To be noted: post-emergence, 336 h, Table 3, 140 g ai/ha, read-out: Visual Growth Reduction (%)-14 Days after Application ECHCG. It is filed as in vivo. The method, boiled down: as §1
Turning to `COc1c(C(=O)O)nc(-c2ccc(C(F)(F)F)nc2)c(F)c1N` [Compound 63], the pest or weed control at 140 g/ha was found to be 95%.
Consider `COc1c(C(=O)O)nc(-c2ccc(Cl)c(F)c2)c(F)c1N` [Compound 49], for which the pest or weed control at 140 g/ha is 100%.
Still for that read-out and setting: in the case of `CCOC(=O)c1nc(-c2ccc(Cl)c(OC)c2F)cc(N)c1SC` [Compound 88, Ethyl 4-amino-6-(4-chloro-2-fluoro-3-methoxyphenyl)-3-(methylthio)picolinate] it was 100%; in that of `COC(=O)c1nc(-c2ccc(C(F)(F)F)nc2)c(F)c(N)c1OC` [Compound 40], 50%.

The same series, now with this note: post-emergence, 336 h, Table 3, 280 g ai/ha, read-out: Visual Growth Reduction (%)-14 Days after Application ECHCG.
Take `CCc1nc(C(=O)OC)c(OC)c(N)c1F` [Compound 13, methyl 4-amino-6-ethyl-5-fluoro-3-methoxypicolinate]: the pest or weed control at 280 g/ha was 0%.
Still for that read-out and setting: under `CCOC(=O)c1nc(-c2ccc(Cl)cc2F)cc(N)c1OCC(F)(F)F` [Compound 67, ethyl 4-amino-6-(4-chloro-2-fluorophenyl)-3-(2,2,2-trifluoro-ethoxy)picolinate] stands 0%.
The same measure, in the same setting: under `CCc1nc(C(=O)O)c(OC)c(N)c1F` [Compound 58] stands 0%.

The test system of the next series is EPHHL: wild poinsettia (Euphorbia heterophylla). Nature of the series: Post-Emergent Test I herbicidal activity. It is filed as in vivo. To be noted: post-emergence, 336 h, Table 3, 140 g ai/ha, read-out: Visual Growth Reduction (%)-14 Days after Application EPHHL. An outline of the steps:
as §1
Turning to `COc1c(C(=O)O)nc(-c2ccc(C(F)(F)F)nc2)c(F)c1N` [Compound 63], the pest or weed control at 140 g/ha is 100%.
On the same count and under the same terms, in the case of `COc1c(C(=O)O)nc(-c2ccc(Cl)c(F)c2)c(F)c1N` [Compound 49] it was 100%; in that of `CCOC(=O)c1nc(-c2ccc(Cl)c(OC)c2F)cc(N)c1SC` [Compound 88, Ethyl 4-amino-6-(4-chloro-2-fluoro-3-methoxyphenyl)-3-(methylthio)picolinate], 100%; in that of `COC(=O)c1nc(-c2ccc(C(F)(F)F)nc2)c(F)c(N)c1OC` [Compound 40], 100%.

Staying with this series, now noted: post-emergence, 336 h, Table 3, 280 g ai/ha, read-out: Visual Growth Reduction (%)-14 Days after Application EPHHL.
In the case of `CCc1nc(C(=O)OC)c(OC)c(N)c1F` [Compound 13, methyl 4-amino-6-ethyl-5-fluoro-3-methoxypicolinate], the pest or weed control at 280 g/ha was 70%.
As for `CCOC(=O)c1nc(-c2ccc(Cl)cc2F)cc(N)c1OCC(F)(F)F` [Compound 67, ethyl 4-amino-6-(4-chloro-2-fluorophenyl)-3-(2,2,2-trifluoro-ethoxy)picolinate], the pest or weed control at 280 g/ha was found to be 35%.
In the case of `CCc1nc(C(=O)O)c(OC)c(N)c1F` [Compound 58], the pest or weed control at 280 g/ha was determined as 65%.

In another series the test system is ORYSA: rice (Oryza sativa). As to the kind of experiment: Post-Emergent Test I herbicidal activity. The class given is in vivo. As to conditions: post-emergence, 336 h, Table 3, 140 g ai/ha, read-out: Visual Growth Reduction (%)-14 Days after Application ORYSA. An outline of the steps: as §1
As for `COc1c(C(=O)O)nc(-c2ccc(C(F)(F)F)nc2)c(F)c1N` [Compound 63], the pest or weed control at 140 g/ha worked out at 50%.
As for `COc1c(C(=O)O)nc(-c2ccc(Cl)c(F)c2)c(F)c1N` [Compound 49], the pest or weed control at 140 g/ha was determined as 25%.
For `CCOC(=O)c1nc(-c2ccc(Cl)c(OC)c2F)cc(N)c1SC` [Compound 88, Ethyl 4-amino-6-(4-chloro-2-fluoro-3-methoxyphenyl)-3-(methylthio)picolinate], the pest or weed control at 140 g/ha worked out at 0%.
For the molecule `COC(=O)c1nc(-c2ccc(C(F)(F)F)nc2)c(F)c(N)c1OC` [Compound 40], the pest or weed control at 140 g/ha is 0%.

Still in this series, the particulars now being: post-emergence, 336 h, Table 3, 280 g ai/ha, read-out: Visual Growth Reduction (%)-14 Days after Application ORYSA.
`CCc1nc(C(=O)OC)c(OC)c(N)c1F` [Compound 13, methyl 4-amino-6-ethyl-5-fluoro-3-methoxypicolinate]: the pest or weed control at 280 g/ha came to 0%.
Still for that read-out and setting: in the case of `CCOC(=O)c1nc(-c2ccc(Cl)cc2F)cc(N)c1OCC(F)(F)F` [Compound 67, ethyl 4-amino-6-(4-chloro-2-fluorophenyl)-3-(2,2,2-trifluoro-ethoxy)picolinate] it was 0%.
The same measure, in the same setting: under `CCc1nc(C(=O)O)c(OC)c(N)c1F` [Compound 58] stands 0%.

A further series has as its system ZEAMX: corn (Zea mays). Nature of the series: Post-Emergent Test I herbicidal activity. It is filed as in vivo. As to conditions: Zea mays, post-emergence, 336 h, Table 3, 140 g ai/ha, read-out: Visual Growth Reduction (%)-14 Days after Application ZEAMX. An outline of the steps:
as §1
Regarding `COc1c(C(=O)O)nc(-c2ccc(C(F)(F)F)nc2)c(F)c1N` [Compound 63], the pest or weed control at 140 g/ha came to 80%.
Still for that read-out and setting: under `COc1c(C(=O)O)nc(-c2ccc(Cl)c(F)c2)c(F)c1N` [Compound 49] stands 90%.
On the same count and under the same terms, in the case of `CCOC(=O)c1nc(-c2ccc(Cl)c(OC)c2F)cc(N)c1SC` [Compound 88, Ethyl 4-amino-6-(4-chloro-2-fluoro-3-methoxyphenyl)-3-(methylthio)picolinate] it was 80%; in that of `COC(=O)c1nc(-c2ccc(C(F)(F)F)nc2)c(F)c(N)c1OC` [Compound 40], 70%.

Still in this series, the particulars now being: Zea mays, post-emergence, 336 h, Table 3, 280 g ai/ha, read-out: Visual Growth Reduction (%)-14 Days after Application ZEAMX.
As for `CCc1nc(C(=O)OC)c(OC)c(N)c1F` [Compound 13, methyl 4-amino-6-ethyl-5-fluoro-3-methoxypicolinate], the pest or weed control at 280 g/ha amounted to 0%.
Still for that read-out and setting: in the case of `CCOC(=O)c1nc(-c2ccc(Cl)cc2F)cc(N)c1OCC(F)(F)F` [Compound 67, ethyl 4-amino-6-(4-chloro-2-fluorophenyl)-3-(2,2,2-trifluoro-ethoxy)picolinate] it was 0%; in that of `CCc1nc(C(=O)O)c(OC)c(N)c1F` [Compound 58], 10%.

System in a further series: not given
Experiment: not given
Settings: not given
What is called melting point is the temperature, or range, at which the solid turns liquid. For `CCc1nc(C(=O)OC)c(OC)c(N)c1F` [Compound 13, methyl 4-amino-6-ethyl-5-fluoro-3-methoxypicolinate], the melting point was 110.5 to 113 °C.
`CCOC(=O)c1nc(-c2ccc(Cl)cc2F)cc(N)c1OCC(F)(F)F` [Compound 67, ethyl 4-amino-6-(4-chloro-2-fluorophenyl)-3-(2,2,2-trifluoro-ethoxy)picolinate] registered a melting point of 123 to 125 °C.
Same read-out and setting: under `CCc1nc(C(=O)O)c(OC)c(N)c1F` [Compound 58] stands 148.5 to 150.5 °C; under `COc1c(C(=O)O)nc(-c2ccc(C(F)(F)F)nc2)c(F)c1N` [Compound 63], 160 to 162 °C.
Same read-out and setting: in the case of `COc1c(C(=O)O)nc(-c2ccc(Cl)c(F)c2)c(F)c1N` [Compound 49] it was 137 °C.
In turn, `CCOC(=O)c1nc(-c2ccc(Cl)c(OC)c2F)cc(N)c1SC` [Compound 88, Ethyl 4-amino-6-(4-chloro-2-fluoro-3-methoxyphenyl)-3-(methylthio)picolinate] gave a melting point of 93 to 94 °C.
Take `COC(=O)c1nc(-c2ccc(C(F)(F)F)nc2)c(F)c(N)c1OC` [Compound 40]: the melting point was 130 to 132 °C.
